Reference: the supplement of paper PMC10307832

Experiments:
Experiment in all cases: relative viability (nuclei count vs DMSO), 5 days (fraction); higher = more cells survive
LCLC-97TM1 = test system: LCLC-97TM1
Method in brief: (§1)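 Five library-drug doses in √10 steps were combined with a fixed anchor-drug dose, or a single drug was given alone, by pin tool to lung cancer cell lines in 1536-well plates the day after seeding. Nuclei were stained and counted after 5 days. Relative viability is the nuclei count in treated wells over that in vehicle wells, taken as the median of duplicate plates.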

BEN = test system: BEN
Method in brief: as §1

EPLC-272H = test system: EPLC-272H
Method in brief: as §1

HCC-78 = test system: HCC-78
Method in brief: as §1

LU99A = test system: LU99A
Method in brief: as §1

LK-2 = test system: LK-2
Method in brief: as §1

NCI-H727 = test system: NCI-H727
Method in brief: as §1

COR-L 105 = test system: COR-L 105
Method in brief: as §1

HCC-827 = test system: HCC-827
Method in brief: as §1

NCI-H2087 = test system: NCI-H2087
Method in brief: as §1

NCI-H1563 = test system: NCI-H1563
Method in brief: as §1

NCI-H1792 = test system: NCI-H1792
Method in brief: as §1

LOU-NH91 = test system: LOU-NH91
Method in brief: as §1

EKVX = test system: EKVX
Method in brief: as §1

NCI-H2126 = test system: NCI-H2126
Method in brief: as §1

NCI-H358 = test system: NCI-H358
Method in brief: as §1

EMC-BAC-2 = test system: EMC-BAC-2
Method in brief: as §1

SK-MES-1 = test system: SK-MES-1
Method in brief: as §1

SW 1573 = test system: SW 1573
Method in brief: as §1

COCC1(CO)C(=O)C2CCN1CC2 (stereo unspecified) [PRIMA-1MET] + C[C@]1(O)C[C@@H](c2nc(-c3ccc4ccc(-c5ccccc5)nc4c3)c3c(N)nccn32)C1 [Linsitinib] (partner 1 µM)
relative viability (LCLC-97TM1; first compound 0.2 µM): 0.213
relative viability (LCLC-97TM1; first compound 2 µM): 0.183
relative viability (LCLC-97TM1; first compound 6.325 µM): 0.199
relative viability (LCLC-97TM1; first compound 20 µM): 0.117
relative viability (BEN; first compound 0.2 µM): 1.04
relative viability (BEN; first compound 0.6325 µM): 0.765
relative viability (BEN; first compound 6.325 µM): 1.08
relative viability (BEN; first compound 20 µM): 0.85
relative viability (EPLC-272H; first compound 0.2 µM): 1.26
relative viability (EPLC-272H; first compound 0.6325 µM): 1.01
relative viability (EPLC-272H; first compound 2 µM): 1.06
relative viability (EPLC-272H; first compound 6.325 µM): 1.2
relative viability (EPLC-272H; first compound 20 µM): 0.973
relative viability (HCC-78; first compound 0.2 µM): 0.658
relative viability (HCC-78; first compound 0.6325 µM): 0.556
relative viability (HCC-78; first compound 6.325 µM): 0.498
relative viability (HCC-78; first compound 20 µM): 0.0559
relative viability (LU99A; first compound 0.2 µM): 0.629
relative viability (LU99A; first compound 0.6325 µM): 0.439
relative viability (LU99A; first compound 2 µM): 0.567
relative viability (LU99A; first compound 6.325 µM): 0.526
relative viability (LU99A; first compound 20 µM): 0.189
relative viability (LK-2; first compound 0.2 µM): 0.624
relative viability (LK-2; first compound 0.6325 µM): 0.554
relative viability (LK-2; first compound 2 µM): 0.237
relative viability (LK-2; first compound 6.325 µM): 0.224
relative viability (LK-2; first compound 20 µM): 0.103
relative viability (NCI-H727; first compound 0.2 µM): 0.386
relative viability (NCI-H727; first compound 0.6325 µM): 0.247
relative viability (NCI-H727; first compound 2 µM): 0.301
relative viability (NCI-H727; first compound 6.325 µM): 0.356
relative viability (NCI-H727; first compound 20 µM): 0.169
relative viability (COR-L 105; first compound 0.2 µM): 0.943
relative viability (COR-L 105; first compound 0.6325 µM): 0.815
relative viability (COR-L 105; first compound 2 µM): 0.823
relative viability (COR-L 105; first compound 6.325 µM): 0.859
relative viability (COR-L 105; first compound 20 µM): 0.168
relative viability (HCC-827; first compound 0.2 µM): 1.04
relative viability (HCC-827; first compound 0.6325 µM): 0.884
relative viability (HCC-827; first compound 2 µM): 0.698
relative viability (HCC-827; first compound 6.325 µM): 0.962
relative viability (HCC-827; first compound 20 µM): 0.906
relative viability (NCI-H2087; first compound 0.2 µM): 1.07
relative viability (NCI-H2087; first compound 0.6325 µM): 0.85
relative viability (NCI-H2087; first compound 2 µM): 0.875
relative viability (NCI-H2087; first compound 6.325 µM): 1.24
relative viability (NCI-H2087; first compound 20 µM): 0.691
relative viability (NCI-H1563; first compound 0.2 µM): 1.25
relative viability (NCI-H1563; first compound 0.6325 µM): 1.14
relative viability (NCI-H1563; first compound 2 µM): 1.15
relative viability (NCI-H1563; first compound 6.325 µM): 1.23
relative viability (NCI-H1563; first compound 20 µM): 0.368
relative viability (NCI-H1792; first compound 0.2 µM): 0.521
relative viability (NCI-H1792; first compound 0.6325 µM): 0.477
relative viability (NCI-H1792; first compound 2 µM): 0.368
relative viability (NCI-H1792; first compound 6.325 µM): 0.578
relative viability (NCI-H1792; first compound 20 µM): 0.53
relative viability (LOU-NH91; first compound 0.2 µM): 1.02
relative viability (LOU-NH91; first compound 0.6325 µM): 0.771
relative viability (LOU-NH91; first compound 2 µM): 0.773
relative viability (LOU-NH91; first compound 6.325 µM): 1.01
relative viability (LOU-NH91; first compound 20 µM): 0.582
relative viability (EKVX; first compound 0.2 µM): 0.999
relative viability (EKVX; first compound 0.6325 µM): 0.912
relative viability (EKVX; first compound 2 µM): 0.707
relative viability (EKVX; first compound 6.325 µM): 1.03
relative viability (EKVX; first compound 20 µM): 0.804
relative viability (NCI-H2126; first compound 0.2 µM): 0.726
relative viability (NCI-H2126; first compound 0.6325 µM): 0.692
relative viability (NCI-H2126; first compound 2 µM): 0.636
relative viability (NCI-H2126; first compound 6.325 µM): 0.732
relative viability (NCI-H2126; first compound 20 µM): 0.67
relative viability (NCI-H358; first compound 0.2 µM): 0.97
relative viability (NCI-H358; first compound 0.6325 µM): 0.399
relative viability (NCI-H358; first compound 6.325 µM): 0.757
relative viability (NCI-H358; first compound 20 µM): 0.0326
relative viability (EMC-BAC-2; first compound 0.2 µM): 0.843
relative viability (EMC-BAC-2; first compound 0.6325 µM): 0.822
relative viability (EMC-BAC-2; first compound 2 µM): 0.784
relative viability (EMC-BAC-2; first compound 6.325 µM): 0.821
relative viability (EMC-BAC-2; first compound 20 µM): 0.817
relative viability (SK-MES-1; first compound 0.2 µM): 1.13
relative viability (SK-MES-1; first compound 0.6325 µM): 1.04
relative viability (SK-MES-1; first compound 2 µM): 1.02
relative viability (SK-MES-1; first compound 6.325 µM): 1.05
relative viability (SK-MES-1; first compound 20 µM): 1.11
relative viability (SW 1573; first compound 0.2 µM): 0.779
relative viability (SW 1573; first compound 0.6325 µM): 0.796
relative viability (SW 1573; first compound 2 µM): 0.875
relative viability (SW 1573; first compound 6.325 µM): 0.456
relative viability (SW 1573; first compound 20 µM): 0.0414
